Source: patent publication US20250228239A1, “MOLECULES HAVING PESTICIDAL UTILITY, AND INTERMEDIATES, COMPOSITIONS, AND PROCESSES, RELATED THERETO” (priority 2024, published 2025)
Where two headings read alike, the source gives them in different places.

Key:
[1] = system: Beet Armyworm (Spodoptera exigua, LAPHEG); experiment: Bioassays on Beet Armyworm (BAW), 128-well diet tray assay; format: in vivo; settings: Spodoptera exigua; for mortality at 50 µg/cm2: 168 h, second instar larvae, 50 μg/cm^2 of test molecule on artificial diet, 25° C., five to seven days, average of eight wells, read-out: BAW % Control (or Mortality) rating
Method: (§1) Certain molecules disclosed in this document were tested against BAW and CL using procedures described in the following examples. In the reporting of the results, the “BAW & CL Rating Table” was used (See Table Section).
Bioassays on BAW were conducted using a 128-well diet tray assay. One to five second instar BAW larvae were placed in each well (3 mL) of the diet tray that had been previously filled with 1 mL of artificial diet to which 50 μg/cm^2 of the test molecule (dissolved in 50 μL of 90:10 acetone-water mixture) had been applied (to each of eight wells) and then allowed to dry. Trays were covered with a clear self-adhesive cover, vented to allow gas exchange, and held at 25° C., 14:10 light-dark for five to seven days. Percent mortality was recorded for the larvae in each well; activity in the eight wells was then averaged. The results are indicated in the table entitled “Table ABC: Biological Results” (See Table Section).

[2] = system: Cabbage Looper (Trichoplusia ni, TRIPNI); experiment: Bioassays on Cabbage Looper (CL), 128-well diet tray assay; format: in vivo; settings: Trichoplusia ni; for mortality at 50 µg/cm2: 168 h, second instar larvae, 50 μg/cm^2 of test molecule on artificial diet, 25° C., five to seven days, average of eight wells, read-out: CL % Control (or Mortality) rating
Method: as §1
Bioassays on CL were conducted using a 128-well diet tray assay. One to five second instar CL larvae were placed in each well (3 mL) of the diet tray that had been previously filled with 1 mL of artificial diet to which 50 μg/cm^2 of the test molecule (dissolved in 50 μL of 90:10 acetone-water mixture) had been applied (to each of eight wells) and then allowed to dry. Trays were covered with a clear self-adhesive cover, vented to allow gas exchange, and held at 25° C., 14:10 light-dark for five to seven days. Percent mortality was recorded for the larvae in each well; activity in the eight wells was then averaged. The results are indicated in the table entitled “Table ABC: Biological Results” (See Table Section).

[3] = Beet Armyworm, Table ABC / ABC-DP rating, read-out: BAW rating
[4] = Cabbage Looper, Table ABC / ABC-DP rating, read-out: CL rating
[5] = Table ABC: Biological Results, species BAW, read-out: BAW
[6] = Table ABC: Biological Results, species CL, read-out: CL

| Compound | pest or weed control at 50 µg/cm2 [1, 5] | pest or weed control at 50 µg/cm2 [2, 6] | further results |
| --- | --- | --- | --- |
| Nc1c(F)cc(NC(=O)c2cc(NC(=O)[C@H]3[C@H](c4ccc(Cl)c(Cl)c4)C3(Cl)Cl)ccc2Cl)cc1F (relative stereo) [DP3, trans-N-(4-Amino-3,5-difluorophenyl)-2-chloro-5-(2,2-dichloro-3-(3,4-dichlorophenyl)cyclopropane-1-carboxamido)benzamide] | – | – | mortality at 50 µg/cm2 [1]: 50 to 100%; pest or weed control at 50 µg/cm2 [1, 3]: 50 to 100%; mortality at 50 µg/cm2 [2]: 50 to 100%; pest or weed control at 50 µg/cm2 [2, 4]: 50 to 100% |
| Nc1cc(F)ccc1NC(=O)c1cc(NC(=O)[C@H]2[C@H](c3ccc(Cl)c(Cl)c3)C2(Cl)Cl)ccc1Cl (relative stereo) [DP6, trans-N-(2-amino-4-fluorophenyl)-2-chloro-5-(2,2-dichloro-3-(3,4-dichlorophenyl)cyclopropane-1-carboxamido)benzamide] | – | – | mortality at 50 µg/cm2 [1]: 50 to 100%; pest or weed control at 50 µg/cm2 [1, 3]: 50 to 100%; mortality at 50 µg/cm2 [2]: 50 to 100%; pest or weed control at 50 µg/cm2 [2, 4]: 50 to 100% |
| Nc1c(F)c(F)c(F)c(NC(=O)c2cc(NC(=O)[C@H]3[C@H](c4cc(Cl)cc(Cl)c4)C3(Cl)Cl)ccc2Cl)c1F (relative stereo) [F1022, trans-N-(3-Amino-2,4,5,6-tetrafluorophenyl)-2-chloro-5-(2,2-dichloro-3-(3,5-dichlorophenyl)cyclopropane-1-carboxamido)benzamide] | 50 to 100% | 50 to 100% | – |
| Nc1c(F)ccc(NC(=O)c2cc(NC(=O)[C@H]3[C@H](c4ccc(F)c(C(F)F)c4)C3(Cl)Cl)ccc2Cl)c1F (relative stereo) [F1036, trans-N-(3-Amino-2,4-difluorophenyl)-2-chloro-5-(2,2-dichloro-3-(3-(difluoromethyl)-4-fluorophenyl)cyclopropane-1-carboxamido)benzamide] | 50 to 100% | 50 to 100% | – |
| Cc1ccc(CNc2ccc(NC(=O)c3cc(NC(=O)[C@H]4[C@H](c5cc(Cl)cc(Cl)c5)C4(Cl)Cl)ccc3Cl)c(C)c2)cc1 (relative stereo) [F1041, trans-2-Chloro-5-(2,2-dichloro-3-(3,5-dichlorophenyl)cyclopropane-1-carboxamido)-N-(2-methyl-4-((4-methylbenzyl)amino)phenyl)benzamide] | 50 to 100% | 50 to 100% | – |
| C=CCN(C(=O)c1cc(NC(=O)[C@H]2[C@H](c3cc(Cl)cc(Cl)c3)C2(Cl)Cl)ccc1Cl)c1ccc(F)cc1C#N (relative stereo) [F1055, trans-N-Allyl-2-chloro-N-(2-cyano-4-fluorophenyl)-5-(2,2-dichloro-3-(3,5-dichlorophenyl)cyclopropane-1-carboxamido)benzamide] | 50 to 100% | 50 to 100% | – |
| Cc1cc(NC(=O)C(Cl)(Cl)Cl)ccc1NC(=O)c1cc(NC(=O)[C@H]2[C@H](c3ccc(Cl)c(Cl)c3)C2(Cl)Cl)ccc1Cl (relative stereo) [F1060, trans-2-Chloro-5-(2,2-dichloro-3-(3,4-dichlorophenyl)cyclopropane-1-carboxamido)-N-(2-methyl-4-(2,2,2-trichloroacetamido)phenyl)benzamide] | 50 to 100% | 50 to 100% | – |
| Cc1cc([C@H]2[C@H](C(=O)Nc3ccc(Cl)c(C(=O)Nc4ccc(F)c(N)c4F)c3)C2(Cl)Cl)cc(C(F)(F)F)c1F (relative stereo) [F1068, trans-N-(3-Amino-2,4-difluorophenyl)-2-chloro-5-(2,2-dichloro-3-(4-fluoro-3-methyl-5-(trifluoromethyl)phenyl)cyclopropane-1-carboxamido)benzamide] | 50 to 100% | 50 to 100% | – |
| CC(C)(C)OC(=O)N(C(=O)OC(C)(C)C)c1c(F)ccc(NC(=O)c2c(Cl)ccc(NC(=O)[C@H]3[C@H](c4ccc(F)c(Cl)c4)C3(Cl)Cl)c2Cl)c1F (relative stereo) [F1107, trans-tert-Butyl-N-tert-butoxycarbonyl-N-[3-[[2,6-dichloro-3-[[2,2-dichloro-3-(3-chloro-4-fluorophenyl)cyclopropanecarbonyl]amino]benzoyl]amino]-2,6-difluoro-phenyl]carbamate] | – | 0 to 50% | – |
| CC(=O)OCCN(C(=O)OC(C)(C)C)c1ccc(NC(=O)c2cc(NC(=O)[C@H]3[C@H](c4cc(Cl)cc(Cl)c4)C3(Cl)Cl)ccc2Cl)c(C)c1 (relative stereo) [F1129, trans-2-((tert-butoxycarbonyl)(4-(2-chloro-5-(2,2-dichloro-3-(3,5-dichlorophenyl)cyclopropane-1-carboxamido)benzamido)-3-methylphenyl)amino)ethyl acetate] | – | 50 to 100% | – |
| Cc1cc(NC(=O)[C@H]2[C@H](c3ccc(F)c(Cl)c3)C2(Cl)Cl)cc(C(=O)Nc2ccc(F)c(N(C(=O)OC(C)(C)C)C(=O)OC(C)(C)C)c2F)c1F (relative stereo) [F1138, trans-tert-Butyl-N-tert-butoxycarbonyl-N-[3-[[5-[[2,2-dichloro-3-(3-chloro-4-fluorophenyl)cyclopropanecarbonyl]amino]-2-fluoro-3-methylbenzoyl]amino]-2,6-difluorophenyl]carbamate] | 0 to 50% | – | – |
| CC(C)(C)OC(=O)N(C(=O)OC(C)(C)C)c1c(F)ccc(NC(=O)c2cc(NC(=O)[C@H]3[C@H](c4ccc(F)c(Cl)c4)C3(Cl)Cl)cc(F)c2Cl)c1F (relative stereo) [F1155, trans-tert-Butyl-N-tert-butoxycarbonyl-N-[3-[[2-chloro-5-[[2,2-dichloro-3-(3-chloro-4-fluorophenyl)cyclopropanecarbonyl]amino]-3-fluorobenzoyl]amino]-2,6-difluorophenyl]carbamate] | 50 to 100% | – | – |
| CC(=O)Oc1c(F)ccc(NC(=O)c2cc(NC(=O)[C@H]3[C@H](c4cc(Cl)cc(Cl)c4)C3(Cl)Cl)ccc2Cl)c1F (relative stereo) [F1193, trans-3-(2-Chloro-5-(2,2-dichloro-3-(3,5-dichlorophenyl)cyclopropane-1-carboxamido)benzamido)-2,6-difluorophenyl acetate] | – | 50 to 100% | – |
| CC(C)(C)OC(=O)N(C(=O)OC(C)(C)C)c1c(F)ccc(NC(=O)c2cc(NC(=O)[C@H]3[C@H](c4ccc(F)c(Cl)c4)C3(Cl)Cl)cc(Cl)c2F)c1F (relative stereo) [F1198, trans-tert-Butyl-N-tert-butoxycarbonyl-N-[3-[[3-chloro-5-[[2,2-dichloro-3-(3-chloro-4-fluorophenyl)cyclopropanecarbonyl]amino]-2-fluorobenzoyl]amino]-2,6-difluorophenyl]carbamate] | – | 0 to 50% | – |
| COc1c(F)cc(NC(=O)[C@H]2[C@H](c3ccc(F)c(Cl)c3)C2(Cl)Cl)cc1C(=O)Nc1ccccc1 (relative stereo) [F1213, trans-5-(2,2-Dichloro-3-(3-chloro-4-fluorophenyl)cyclopropane-1-carboxamido)-3-fluoro-2-methoxy-N-phenylbenzamide] | – | 50 to 100% | – |
| COc1c(Cl)cc(NC(=O)[C@H]2[C@H](c3ccc(F)c(Cl)c3)C2(Cl)Cl)cc1C(=O)Nc1ccc(F)c(N(C(=O)OC(C)(C)C)C(=O)OC(C)(C)C)c1F (relative stereo) [F1237, trans-tert-Butyl-N-tert-butoxycarbonyl-N-[3-[[3-chloro-5-[[2,2-dichloro-3-(3-chloro-4-fluorophenyl)cyclopropanecarbonyl]amino]-2-methoxybenzoyl]amino]-2,6-difluorophenyl]carbamate] | 0 to 50% | – | – |
| O=C(Nc1cc(Cl)c(O)c(Cl)c1)c1cc(NC(=O)[C@H]2[C@H](c3cc(Cl)cc(Cl)c3)C2(Cl)Cl)ccc1Cl (relative stereo) [F1360, trans-2-Chloro-5-(2,2-dichloro-3-(3,5-dichlorophenyl)cyclopropane-1-carboxamido)-N-(3,5-dichloro-4-hydroxyphenyl)benzamide] | – | 50 to 100% | – |
| CCOC(=O)C(F)(F)CNC(=O)c1cc(NC(=O)[C@H]2[C@H](c3cc(Cl)cc(Cl)c3)C2(Cl)Cl)ccc1Cl (relative stereo) [F2076, trans-Ethyl 3-(2-chloro-5-(2,2-dichloro-3-(3,5-dichlorophenyl)cyclopropane-1-carboxamido)benzamido)-2,2-difluoropropanoate] | – | – | pest or weed control at 50 µg/cm2 [2, 4]: 50 to 100% |
| Cc1c(F)c(NC(=O)c2cc(NC(=O)[C@H]3[C@H](c4ccc(F)c(C(F)(F)F)c4)C3(Cl)Cl)ccc2Cl)cc(N(C(=O)OC(C)(C)C)C(=O)OC(C)(C)C)c1F [F1670, tert-Butyl N-tert-butoxycarbonyl-N-[5-[[2-chloro-5-[[(1R,3R)-2,2-dichloro-3-[4-fluoro-3-(trifluoromethyl)phenyl]cyclopropanecarbonyl]amino]benzoyl]amino]-2,4-difluoro-3-methyl-phenyl]carbamate] | – | – | pest or weed control at 50 µg/cm2 ([1]; Beet Armyworm, rating class, read-out: BAW): 0 to 50% |
